# Measured values published in ChEMBL document CHEMBL1777693, “New halogenated phenylcoumarins as tyrosinase inhibitors” (Bioorg Med Chem Lett, 2011).
# Biological target: T1, Tyrosinase (Homo sapiens, UniProt P14679)
# T1 sequence (P14679 whole entry): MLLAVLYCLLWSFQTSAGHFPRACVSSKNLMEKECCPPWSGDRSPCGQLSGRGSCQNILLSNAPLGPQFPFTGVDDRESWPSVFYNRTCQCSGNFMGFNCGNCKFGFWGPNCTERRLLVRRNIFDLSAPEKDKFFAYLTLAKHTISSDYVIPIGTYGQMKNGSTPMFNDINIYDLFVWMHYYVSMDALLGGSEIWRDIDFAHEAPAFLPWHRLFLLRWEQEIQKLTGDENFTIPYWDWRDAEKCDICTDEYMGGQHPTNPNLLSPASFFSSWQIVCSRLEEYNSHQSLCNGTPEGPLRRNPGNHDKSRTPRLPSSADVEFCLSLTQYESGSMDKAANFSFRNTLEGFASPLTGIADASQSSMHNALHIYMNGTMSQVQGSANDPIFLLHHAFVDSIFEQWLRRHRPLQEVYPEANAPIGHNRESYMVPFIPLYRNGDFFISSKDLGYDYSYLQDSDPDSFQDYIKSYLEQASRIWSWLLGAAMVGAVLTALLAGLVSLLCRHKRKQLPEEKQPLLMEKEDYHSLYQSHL
# Assay: Inhibition of tyrosinase
row,IC50,Structure (SMILES)
1,0.42 mM,O=c1ccc2ccc(O)cc2o1 [UMBELLIFERONE]
2,> 10 mM,O=c1oc2cc(O)ccc2cc1-c1ccccc1
3,3.68 mM,Oc1ccc(/C=C/c2cc(O)cc(O)c2)cc1 [RESVERATROL]
4,> 10 mM,O=c1oc2cc(O)ccc2cc1-c1cc(O)cc(O)c1

# Biological target: T2, Tyrosinase (Agaricus bisporus, UniProt O42713)
# T2 sequence (O42713 whole entry): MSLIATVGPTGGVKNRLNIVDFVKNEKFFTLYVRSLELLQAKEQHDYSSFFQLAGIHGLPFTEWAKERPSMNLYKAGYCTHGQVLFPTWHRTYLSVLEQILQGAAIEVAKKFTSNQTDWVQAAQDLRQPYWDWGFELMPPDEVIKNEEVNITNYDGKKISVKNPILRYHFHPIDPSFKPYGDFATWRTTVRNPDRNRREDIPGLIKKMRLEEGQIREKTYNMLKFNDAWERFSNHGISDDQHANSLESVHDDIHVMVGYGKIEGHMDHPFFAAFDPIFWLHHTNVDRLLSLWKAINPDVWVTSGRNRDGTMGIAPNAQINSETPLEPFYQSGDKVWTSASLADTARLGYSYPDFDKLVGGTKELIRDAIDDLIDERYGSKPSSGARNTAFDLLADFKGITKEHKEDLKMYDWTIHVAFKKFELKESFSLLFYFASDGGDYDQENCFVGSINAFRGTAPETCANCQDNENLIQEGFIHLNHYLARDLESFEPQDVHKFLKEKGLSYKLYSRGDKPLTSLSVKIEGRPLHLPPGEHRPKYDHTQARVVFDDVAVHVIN
# Assay: Inhibition of mushroom tyrosinase using L-3,4- dihydroxyphenylalanine as substrate measured for 5 mins by spectrophotometric analysis
row,IC50,Structure (SMILES)
1,2.07 mM,CCOc1cccc2cc(-c3ccccc3)c(=O)oc12
2,1.36 mM,COc1ccc(-c2cc3cc(Br)cc(OC)c3oc2=O)cc1
3,0.302 mM,O=c1oc2c(O)cc(Br)cc2cc1-c1ccccc1
4,> 5 mM,COc1cc(Br)cc2cc(-c3ccccc3)c(=O)oc12
5,1.3 mM,O=c1oc2c(O)cccc2cc1-c1ccc(O)cc1
6,> 5 mM,CCOc1cccc2cc(-c3ccc(OC)cc3)c(=O)oc12
7,0.215 mM,O=c1oc2c(O)cc(Br)cc2cc1-c1ccc(O)cc1
8,> 5 mM,O=c1oc2c(O)cccc2cc1-c1ccccc1

# Biological target: T2, Tyrosinase
# Assay: Non-competitive inhibition of mushroom tyrosinase using L-3,4- dihydroxyphenylalanine as substrate by Lineweaver-Burk double reciprocal plot analysis
row,Ki,Structure (SMILES)
1,189 µM,O=c1oc2c(O)cc(Br)cc2cc1-c1ccc(O)cc1
